Reference: the METLIN SMRT retention time set (Domingo-Almenara et al. 2019)

Test: gradient 5% acetonitrile 3 min, to 50% in 2 min, to 85% in 15 min, held 3 min, 100 µL/min
Settings: column: Zorbax Extend-C18 2.1 x 50 mm; eluents: water / acetonitrile, 0.1% formic acid
How it was run: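 Standards, all pure, were combined into mixtures of ~100 molecules and run at 100 μL/min on a Zorbax Extend-C18 column (2.1 × 50 mm, 1.8 μm) with water and acetonitrile, each containing 0.1% formic acid. A coupled quadrupole time-of-flight mass spectrometer operated in positive and negative ionization mode. Retention time values come from computationally picked adduct peaks, each inspected manually.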

Structure (SMILES) | RP-LC retention time [s]
CCc1ccccc1NC(=O)Cn1c(=O)nc(N2CCC(C)CC2)c2ccccc21 | 898
O=C(COc1cccc2c1CCN(Cc1ccc(F)cc1)C2=O)Nc1ccc2c(c1)OCO2 | 846
Cc1cc(C)c(S(=O)(=O)N2CCCC(C(=O)Nc3ccccc3F)C2)c(C)c1 (stereo unspecified) | 1090
O=C(C1=CN(c2ccc3c(c2)OCCO3)c2ccccc2S1(=O)=O)N1CCCCC1 | 830
Cc1nc(-c2cccnc2)nc2c1CC(=O)N2C(C)C | 654
CCn1cc(S(=O)(=O)N2CC(N(Cc3cccnc3)CC(C)C)C2)cn1 | 592
CCC(C)Nc1nc(NC)nc(-n2cnc(SC)n2)n1 (stereo unspecified) | 790
CC1(CNC(=O)NCc2cccc(F)c2)CCOCC1 | 684
CN1CCC[C@@H]1Cc1c[nH]c2ccc(CCS(=O)(=O)c3ccccc3)cc12 | 604
CCC(=O)N(C)CCc1noc(-c2ccc(C(=O)NCCC(C)C)cc2)n1 | 806
O=C(Nc1ccc(F)cc1)Nc1nccn(-c2ccc(Br)cc2)c1=O | 985
O=C(Cc1cccs1)Nc1ccc(SCc2nnc(-c3ccccc3)o2)cc1 | 940
Cc1cc(-c2ccc(S(=O)(=O)N3CCN(c4ccccn4)CC3)s2)n[nH]1 | 623
CCCNC(=O)C(=O)NCc1n[nH]c(=O)c2ccccc12 | 627
Cc1nc2nc(-c3ccc(C(C)(C)C)cc3)nn2c(C)c1CC(=O)N(CCO)Cc1ccccc1 | 982
CCOc1ccccc1-c1noc(-c2nnn(Cc3nc(-c4ccccc4OC)oc3C)c2C)n1 | 1070
Cc1nn(CC(=O)N2CCCC2)c(=O)c2nc(C(C)C)sc12 | 680
CCCCS(=O)(=O)N1CCCC(c2nnc(-c3ccc4c(c3)OCO4)o2)C1 (stereo unspecified) | 819
O=C(Nc1ccc(N2CCN(C3CCCC3)C2=O)nc1)c1cccnc1 | 638
O=C(NCCc1nc2cccnc2n1Cc1ccccc1)NCc1ccc(F)cc1 | 738
O=C(c1cn2ccnc(-c3ccccc3)c2n1)N1CCCC1 | 831
CCNc1nc(C)cc(N2CCN(S(=O)(=O)c3cc(C)c(C)cc3C)CC2)n1 | 774
CSc1cccc(NC(=O)C2CCCN(c3ncnc4c3nc3n4CCCCC3)C2)c1 (stereo unspecified) | 866

Structure (SMILES) | RP-LC retention time [s]
CC(C)c1nccn1C1CN(S(=O)(=O)c2cccc(F)c2)C1 | 640
O=C(CN1CC=C(c2cnn(-c3ccccc3)c2)CC1)N1CCN(c2ccccn2)CC1 | 567
CCc1noc([C@@H]2CC(F)(F)CN2C(=O)c2nccn2C)n1 | 744
Cc1nnc(N2CCCC(C(=O)NCc3ccccc3)C2)c2nn(-c3ccc(Cl)cc3)c(C)c12 (stereo unspecified) | 765
CCc1ccc(-n2nnc(C(=O)N3CCC4(CC3)OCCO4)c2-c2ccncc2)cc1 | 766
O=C(Nc1ccc(F)cc1)C(=O)c1cn(CC(=O)N2CCCC2)c2ccccc12 | 954
NC(=O)C1CCN(C(=O)CN2CCc3ccccc32)CC1 | 610
CCOc1ccc(N2C(=O)C3N=NN(Cc4nc(-c5ccc(OC(C)C)cc5)no4)C3C2=O)cc1 (stereo unspecified) | 1120
Cn1c(N2CCCC(C(=O)NCC3CCN(Cc4cccc(F)c4)CC3)C2)cc(=O)n(C)c1=O (stereo unspecified) | 575
N#Cc1nc(-c2ccc(COc3ccc(Cl)cc3)o2)oc1NCCCn1ccnc1 | 627
Cc1cccc(CN2CCn3c(nnc3[C@@H]3C[C@@H](O)CN3Cc3cccnc3)C2)c1 | 586
CCCC(=O)N1CC(c2nc(-c3cccnc3)no2)C2(CCOCC2)C1 (stereo unspecified) | 622
Cc1noc(C)c1CN1CCC(NC(=O)Cc2ccc(F)cc2)C1 (stereo unspecified) | 597
O=C1c2cccc(OCC(=O)N3CCCc4ccccc43)c2CCN1Cc1cccnc1 | 594
Fc1ccc(Cn2cc(-c3noc(-c4ccc5cc[nH]c5c4)n3)nn2)cc1 | 952
Cc1nnc(NC(=O)CSc2nnc(C3COc4ccccc4O3)o2)s1 (stereo unspecified) | 699
CC(C)c1nn2c(S(=O)(=O)NCc3cccs3)c(C(C)C)nc2s1 | 966
COc1ccc(C2(CNC(=O)C(=O)Nc3ccccc3Cl)CCCC2)cc1 | 1300
CC1=C(c2ccccc2)S(=O)(=O)N=C1N1CCCN(C(=O)CC(C)(C)C)CC1 | 854
Cc1ccc2nc(C(=O)N3CCN(c4ccccc4C)CC3)cn2c1 | 664
Cc1nn(-c2ccccc2)c(C)c1S(=O)(=O)N1CCC(C(=O)Nc2cccc(F)c2)CC1 | 986
COc1ccc(OCC(O)CN(CCO)CC(O)Cn2ccc3ccccc32)cc1 (stereo unspecified) | 591

Second part, the molecule after the results:

RP-LC retention time [s] | Structure (SMILES)
753 | Cc1nc2cc(N3CC(C(=O)Nc4ccc(F)c(C)c4)CC3=O)ccc2o1 (stereo unspecified)
679 | COC(=O)c1ccc(NC(=O)N2CCOc3ccc(C)cc32)cc1
668 | Cc1ccc2nc(C(=O)NCc3ccc(F)cc3F)cn2c1
878 | CCOC(=O)c1cn(Cc2cccc(F)c2)c2nc(C)ccc2c1=O
665 | COc1ccc(NC(=O)Cn2ccc3c(=O)n(C)c(=O)n(C)c32)c(OC)c1
1210 | CCc1cc(C(=O)Nc2cc(Cl)ccc2OC)nc2ccnn12
817 | CCOc1ccc(NC(=O)COc2cc(C(=O)OC)nc3ccc(OC)cc23)cc1
970 | Cc1ccc(N2C=C(C(=O)N3CCOCC3)S(=O)(=O)c3ccc(Cl)cc32)cc1Cl
858 | O=C1OC(C(=O)Nc2ccc(F)cc2)Cc2ccc(Cl)cc21 (stereo unspecified)
717 | COc1ccc(-c2ncccc2CNS(=O)(=O)c2cc(C)cc(C)c2)cc1
936 | CCOC(=O)c1c(S(=O)(=O)N2CCC(C(=O)Nc3cc(C)ccc3OC)CC2)c(C)n(C)c1C
734 | COC(=O)c1ccc(NC(=O)Cc2csc3nc(-c4ccc(OC)c(OC)c4)cn23)cc1
933 | COc1ccc(NC(=O)N2c3ccccc3CC2c2nc(C3CC3)no2)cc1OC (stereo unspecified)
701 | CCN1C(=O)CCc2cc(NC(=O)c3ccn(CC)n3)ccc21
977 | Cc1ccc(-c2cc(C(=O)NC(C)C)n(C)c2)cc1
1200 | CCOc1nc2ccccc2nc1N1CCCC(C(=O)Nc2cccc(F)c2)C1 (stereo unspecified)
885 | COc1ccc2nc(NC(=O)Cc3csc4nc(-c5ccc(C)c(C)c5)cn34)sc2c1
937 | CCc1nc(OCC(=O)Nc2ccc(Cl)cc2Cl)c2ccccc2n1
692 | CCOc1cc(-c2cccc(Cl)c2)nc2ccc(C(=O)N3CCN(c4ccccn4)CC3)cc12
736 | Cc1cc(=O)n(CC(=O)Nc2cc(Cl)ccc2C)c(N2CCOCC2)n1
1040 | COC(=O)C(CCSC)NC(=O)c1cc2c(n(-c3ccc(Cl)cc3)c1=O)CC(C)(C)CC2=O (stereo unspecified)
